Entries after “also recorded” stand apart in the source; their conditions may differ. No end group written: not given here.
Key:
DMC1-ssDNA filaments = experiment: EMSA, protection of DMC1-ssDNA filaments from BRC4-mediated disruption; type: biochemical, human; conditions: 10-fold excess of BRC4
Experimental: Finally, we tested whether binding of BRCA2 Ex14 protects DMC1-ssDNA nucleoprotein filaments from BRC4-mediated disruption (Fig. 3c). […] Further, whilst the core PhePP interaction site is sufficient to stimulate DMC1-ssDNA nucleoprotein filament formation, surrounding amino-acids that are present within Ex14 (but not Ex14-Tr) are necessary to super-shift filaments and confer protection from BRC4-mediated disruption.
To form nucleoprotein filaments, DMC1 and RAD51 was incubated with fluorescent 100-base ssDNA (5’-FAM- […]-3’) at the concentrations indicated in the figures for 30 minutes at 4 °C in reaction buffer. For DMC1, reaction buffer is 25 mM TEA (triethanolamine) pH 7.5, 1 mM ATP, 2 mM MgCl2, 0.1 mg/ml BSA, 2 mM DTT, 200 mM KCl. For RAD51, reaction buffer is 50 mM TEA (triethanolamine), 2 mM ATP, 0.5 mM MgCl2, 2 mM DTT. For assays requiring incomplete nucleoprotein filament assembly, the reaction buffer consisted of 50 mM TAE (tris, acetate, EDTA) pH 7.5, 2 mM ATP, 2 mM MgCl2, 2 mM DTT. In nucleoprotein formation stimulation assays or supershift experiments, BRCA2Ex14 or BRCA2Ex14-AAA were added for a further 30 min at 4 °C. […] Glycerol was added at a final concentration of 3%, and samples were analysed by electrophoresis on a 1% (w/v) (for DMC1) or 0.66% (w/v) (for RAD51) agarose gel in 0.5x TAE pH 8.0 at 20–40 V for ~4 h at 4 °C. DNA was detected by FAM using a Typhoon^TM FLA 9500 (GE Healthcare), with 473 nm laser at excitation wavelength 490 nm and emission wavelength 520 nm, using the LPB filter and a PMT voltage of 500 V. To analyse RAD51 nucleoprotein filaments assembled upon 100-base poly(dT) ssDNA, gels were stained post-run using SYBR^TM Gold Nucleic Acid Gel Stain (Invitrogen) and detected using a Typhoon^TM FLA 9500 (GE Healthcare).

DMC1 = conditions: ref [21],[27],[32]; cited from earlier work
Excerpt: The PhePP-binding site of DMC1 is formed by two loops, corresponding to amino-acids 147-153 and 178-183, respectively. The first loop consists of amino-acids 147-GAGGYPG-153 in DMC1 and 148-IDRGGGE-154 in RAD51 (herein referred to as PhePP-binding loop A; Fig. 1d), and is one of the most divergent regions between DMC1 and RAD51 (Supplementary Fig. 4). The second loop consists of amino-acids 178-NVDHDA-183 in DMC1 and 179-GLSGSD-184 in RAD51 (herein referred to as PhePP-binding loop B; Fig. 1e), in which residues V179 (DMC1) and L180 (RAD51) substantially contribute to the PhePP-binding pocket. ...

DMC1 ΔN loop mutant = biological target: T1, DMC1 ΔN loop mutant (Homo sapiens, UniProt Q14565, A148D/A183D/D180S/D182S/G147I/G149R/G153E/H181G/N178G/P152G/V179L/Y151G); experiment: Microscale thermophoresis (MST), BRCA2 peptide and DMC1 ΔN loop mutant; type: binding; conditions: labelled DMC1 ΔN loop mutant 150 nM; pH 8.0
T1 construct: DMC1 ΔN (83-340) were cloned into pHAT4; made in house
T1 sequence (Q14565 83-340 G147I/A148D/G149R/Y151G/P152G/G153E/N178G/V179L/D180S/H181G/D182S/A183D limits assumed): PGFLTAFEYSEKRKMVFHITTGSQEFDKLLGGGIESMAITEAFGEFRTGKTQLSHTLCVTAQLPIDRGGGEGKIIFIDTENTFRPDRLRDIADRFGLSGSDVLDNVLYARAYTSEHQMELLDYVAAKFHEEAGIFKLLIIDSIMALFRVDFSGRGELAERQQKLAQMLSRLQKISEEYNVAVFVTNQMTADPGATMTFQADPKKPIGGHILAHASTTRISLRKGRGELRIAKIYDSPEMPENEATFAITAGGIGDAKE
Experimental: DMC1 ΔN and DMC1 ΔN loop mutant were labelled in 10 mM HEPES pH 8.0, 150 mM NaCl with an amine reactive fluorescent dye (MonolithTM Protein Labelling Kit BLUE-NHS, Nanotemper GmbH). A serial dilution of titrant (peptide) was prepared in 10 mM HEPES pH 8.0, 150 mM NaCl, 0.05 % Tween-20. The concentration of labelled DMC1 ΔN or DMC1 ΔN loop mutant were constant at 150 nM and the concentration of the interacting peptide was titrated in 1:1 dilutions starting from 750 µM. An equal volume (10 µl) of the serial dilution and of the diluted labelled DMC1 were mixed and loaded in glass capillaries (MonolithTM NT.115 MST Premium Coated Capillaries, Nanotemper GmbH). The initial fluorescence and the thermophoretic mobility were measured on a Monolith NT.115 system (NanoTemper Technologies). […]
As a change in initial fluorescence was detected, SDS denaturation (SD) tests were performed according to the manufacturer’s instructions to determine whether these changes were ligand-induced and whether the data could therefore be used to derive affinity measurements. […] After incubating each for 5 minutes at 95 °C to denature the proteins and subject to brief centrifugation, the samples were loaded onto Premium Coated Capillaries and their initial fluorescence measurements recorded. […] Initial fluorescence readings were used to derive binding affinities.

RAD51-ssDNA filaments = conditions: ref [33],[34]; cited from earlier work
Excerpt: BRCA2 interacts with RAD51 and DMC1 recombinases through BRC repeats and PhePP motifs (Fig. 1a)[21],[25]–[28]. The eight BRC repeats, located within BRCA2’s central exon 11 region, bind to RAD51 and DMC1 with various affinities[25],[29],[30].

Row | Substance | protection of DMC1-ssDNA filaments from BRC4-mediated disruption (DMC1-ssDNA filaments; 5-fold excess (55 μM) peptide) | protection of DMC1-ssDNA filaments from BRC4-mediated disruption (DMC1-ssDNA filaments; TEA pH 7.5 + KCl, Ex14 10-fold stoichiometric excess (110 μM)) | protection of DMC1-ssDNA filaments from BRC4-mediated disruption (DMC1-ssDNA filaments; equimolar (11 μM) peptide) | selective binding to DMC1 (DMC1) | interaction by MST (in words) (DMC1 ΔN loop mutant) | protection of nucleoprotein filaments from BRC-mediated disruption (RAD51-ssDNA filaments)
1 | ATRNEKMRHLITTGRPTKVFVPPFKTKSHFHRVE [Ex14] | complete protection | protected against BRC4-mediated disruption; also recorded: protected filaments from disruption | some protection | bind selectively to DMC1 | not detectable; also recorded: abolished its ability to bind Ex14 | –
2 | Ex27: BRCA2 exon 27 PhePP peptide, amino acids 3270-3315 (ALDFLSRLPLPPPVSPICTFVSPAAQKAFQPPRSCGTKYETPIKKK; UniProt P51587 3270-3315, looked up, fragment) | – | – | – | – | – | protects nucleoprotein filaments from BRC-mediated disruption
